The values that follow come from patent US20100273831A1, “FLUORO ALKYL SUBSTITUTED BENZIMIDAZOLE CANNABINOID AGONISTS” (priority 2007, published 2010).

Molecules are shown by their SMILES.

Data set [1] has as its target T1, human CB1 (hCB1) receptor (Homo sapiens, UniProt P21554).
T1 construct: expressed in transfected cells; host or cells: CHO-K1
As to the kind of experiment: Inhibition of forskolin-activated cAMP production upon activation of human CB1 receptor (HTRF assay, CHO-K1 cells). Particulars: agonism; CHO-K1 cells stably transfected with hCB1; pEC50=-log(EC50); relative to CP55490; read-out: CB-1 pEC50 (converted). Type of data set: cell-based. How it is done:
(§1) Functional activity of the test compounds was assessed by measuring their potency to inhibit forskolin-activated cAMP production upon activation of the human CB1 (hCB1) or human CB2 (hCB2) receptor through homogenous time resolved fluorescence (HTRF) assays.
(§2) CHO-K1 cells stably transfected with either hCB1 or hCB2 were grown up to 80-90% confluence in T175 Falcon flasks in DMEM/NUT MIX F-12 culture medium complemented with 2% Solution A (5.10^6 IU/1 penicillin G, 5 g/l streptomycin sulphate, 5.5 g/l pyruvate, 14.6 g/l L-glutamine, 1M NaOH) and 10% foetal calf serum. Before the experiments, medium was removed, cells were washed with PBS/EDTA (140 mM NaCl, 1 mM Na2-EDTA, 8 mM Na2HPO4.2H2O, 8.5 mM KH2PO4, 2.7 mM KCl, 21 mM glucose), resuspended in stimulation buffer (HBSS 1×, IBMX 1 mM, Hepes 5 mM, MgCl2 10 mM, BSA 0.1%, pH 7.4). Cells were diluted to a concentration of 8.10^5 cell/ml for hCB1 experiments and 10^6 cells/ml for hCB2 experiments. Assays were performed using the cAMP Dynamic HTRF kit (CIS bio international, France) according to the recommendations of the manufacturer.
For CB1, each well of a 96 flat bottom black polystyrene assay plate (Costar) was filled with 25 μl stimulation buffer containing 6 μM forskolin and either test compound (in 2% DMSO), 2% DMSO or 2 μM CP55490 (in 2% DMSO). Then, 25 μl of the diluted cells was added (20,000 cells/well). After 30 minutes incubation in dark at room temperature, 25 μl cAMP-XL665 and 25 μl anti-cAMP cryptate (both at a final dilution of 1/80) was added to the cells.
(§3) After equilibration of the reaction mixtures for 1 to 24 hours in dark at room temperature, fluorescence was measured at 665 nm and 620 nm using a Discovery microplate fluorescence counter (Perkin Elmer), and the signal ratio of 665 nm/620 nm was calculated. The signal ratios of the test compounds were expressed relative to the signal ratios of the DMSO control (maximal signal ratio, no inhibition of cAMP) and CP55490 or WIN55212-2 for hCB1 and hCB2, respectively (minimal signal ratio, maximal inhibition of cAMP). From the dose response curves generated for each test compound, the dose at which 50% of the maximal inhibition of cAMP level is observed (EC50, expressed in the Tables as pEC50=−log(EC50) values) and the level of inhibition reached with 10 μM of the test compound compared to CP55490 (for hCB1) or WIN55212-2 (for hCB2) was calculated.

In data set [2] the target is T2, human CB2 (hCB2) receptor (Homo sapiens, UniProt P34972).
T2 construct: expressed in transfected cells; host or cells: CHO-K1
Description: Inhibition of forskolin-activated cAMP production upon activation of human CB2 receptor (HTRF assay, CHO-K1 cells). The class given is cell-based. Particulars: agonism; CHO-K1 cells stably transfected with hCB2; pEC50=-log(EC50); relative to WIN55212-2; read-out: CB-2 pEC50 (converted). How it is done: as §1, §2
For CB2, each well of a 384 flat bottom black polystyrene assay plate (Costar) was filled with 10 μl stimulation buffer containing 15 μM forskolin and either test compound (in 3% DMSO), 3% DMSO or 10 μM Win55212-2 (in 3% DMSO). Then, 20 μl of the diluted hCB2-CHO-K1 cells was added (20,000 cells/well). After 30 minutes incubation in dark at room temperature, 10 μl cAMP-XL665 and 10 μl anti-cAMP cryptate (both at a final dilution of 1/100) was added to the cells.
as §3

T1 sequence (P21554 whole entry): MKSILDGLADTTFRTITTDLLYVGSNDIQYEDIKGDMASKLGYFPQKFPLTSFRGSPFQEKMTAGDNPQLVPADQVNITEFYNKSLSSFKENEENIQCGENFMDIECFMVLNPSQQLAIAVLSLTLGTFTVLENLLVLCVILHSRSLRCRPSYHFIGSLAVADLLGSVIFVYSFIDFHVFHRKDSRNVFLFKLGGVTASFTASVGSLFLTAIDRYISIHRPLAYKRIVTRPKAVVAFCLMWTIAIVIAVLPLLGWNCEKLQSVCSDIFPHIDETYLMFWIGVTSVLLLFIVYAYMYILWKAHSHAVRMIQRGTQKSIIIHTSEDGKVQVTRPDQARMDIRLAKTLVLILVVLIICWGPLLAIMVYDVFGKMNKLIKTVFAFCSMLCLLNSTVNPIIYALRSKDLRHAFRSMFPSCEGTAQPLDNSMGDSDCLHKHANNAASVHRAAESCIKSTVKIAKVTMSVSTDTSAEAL
T2 sequence (P34972 whole entry): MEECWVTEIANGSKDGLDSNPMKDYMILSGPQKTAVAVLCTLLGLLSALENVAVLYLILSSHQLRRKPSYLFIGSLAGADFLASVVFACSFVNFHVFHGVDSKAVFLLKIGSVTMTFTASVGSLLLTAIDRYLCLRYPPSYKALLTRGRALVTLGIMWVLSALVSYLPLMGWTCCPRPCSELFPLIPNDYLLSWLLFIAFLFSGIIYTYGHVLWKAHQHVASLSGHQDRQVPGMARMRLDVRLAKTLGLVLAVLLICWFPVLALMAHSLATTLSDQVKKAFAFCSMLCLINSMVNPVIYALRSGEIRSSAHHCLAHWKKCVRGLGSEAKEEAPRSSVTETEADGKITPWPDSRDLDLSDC

With `CC(C)(C)c1nc2cc(S(=O)(=O)C3CCNC3=O)ccc2n1CCCC(F)(F)F` (stereo not drawn) [compound 16], the EC50 in data set [1] was 3980 nM; in data set [2], 2.51 nM. In turn, `CC(C)(C)c1nc2cc(S(=O)(=O)c3ccncc3)ccc2n1CCCC(F)(F)F` displayed a melting point of 155.4 °C. `CC(C)(C)c1nc2cc(S(=O)(=O)CC3CC3)ccc2n1CCCC(F)(F)F` [compound 3]: the EC50 in data set [1] was 316 nM; in data set [2] it was 1.26 nM. On the same counts, the results for `COc1ccc(CSc2ccc3c(c2)nc(C(C)(C)C)n3CCCCC(F)(F)F)cc1` [compound 10] are over 10000 nM and 6.31 nM.

The compound `CC(C)(C)c1nc2cc(S(=O)(=O)C3CCNC3=O)ccc2n1CCCC(F)(F)F` (stereo not drawn) yielded a melting point of 208.7 °C. `CC(C)(C)c1nc2cc(S(=O)(=O)C(C)(C)c3ccc(C#N)cc3)ccc2n1CCCCC(F)(F)F`: the melting point was determined as 187.6 °C.

For the compound `CC(C)(C)c1nc2cc(S(=O)(=O)Cc3ccc(C#N)cc3)ccc2n1CCCCC(F)(F)F`, the melting point turned out to be 177.4 °C. With `CC(C)(C)c1nc2cc(Sc3ccc(C#N)cc3)ccc2n1CCCC(F)(F)F` [compound 9], the EC50 is 25.1 nM in data set [1] and 1 nM in data set [2]. With `CC(C)(C)c1nc2cc(S(=O)(=O)CC3CC3)ccc2n1CCCCC(F)(F)F` [compound 11], the results for the EC50 in data set [1] and in data set [2] were 31.6 nM and 1.58 nM, respectively.

As to `CC(C)(C)c1nc2cc(S(=O)(=O)Cc3ccc(C#N)cc3)ccc2n1CCCCC(F)(F)F` [compound 19], the EC50 in data set [1] is over 10000 nM; in data set [2], 2 nM. For the compound `CC(C)(C)c1nc2cc(S(=O)(=O)c3cn[nH]c3)ccc2n1CCCC(F)(F)F` [compound 5], the melting point was found to be 220.8 °C. Further, the EC50 in data set [1] is 1260 nM. For the same compound, in data set [2], the EC50 is 0.794 nM. Take `CC(C)(C)c1nc2cc([S+]([O-])c3ccc(C#N)cc3)ccc2n1CCCC(F)(F)F` (stereo not drawn) [compound 7]: the EC50 in data set [1] was over 10000 nM; in data set [2], 2.51 nM. As for `CC(C)(C)c1nc2cc(S(=O)(=O)C(C)(C)c3ccc(C#N)cc3)ccc2n1CCCCC(F)(F)F` [compound 20], the values for the EC50 in data set [1] and in data set [2] were 2000 nM and 1.58 nM, respectively.

Regarding `CC(C)(C)c1nc2cc(S(=O)(=O)c3ccncc3)ccc2n1CCCCC(F)(F)F` [compound 13], the melting point worked out at 147.6 °C. Moreover, the EC50 in data set [1] was 200 nM. Further, in data set [2], the EC50 is 1.58 nM. Turning to `CC(C)(C)c1nc2cc(S(=O)(=O)C3CCNC3=O)ccc2n1CCCCC(F)(F)F` (stereo not drawn) [compound 23], the EC50 was 1580 nM in data set [1] and 5.01 nM in data set [2]. For the compound `CC(C)(C)c1nc2cc(S(=O)(=O)Cc3ccc(C(N)=O)cc3)ccc2n1CCCCC(F)(F)F` [compound 22], the melting point came to 222.8 °C. Moreover, the EC50 in data set [1] is 79.4 nM. The EC50 in data set [2] was 2 nM. As to `COc1ccc(CSc2ccc3c(c2)nc(C(C)(C)C)n3CCCC(F)(F)F)cc1`, the melting point was found to be 143.2 °C. Still for that read-out and setting: with `CC(C)(C)c1nc2cc(S(=O)(=O)c3ccc(C(N)=O)cc3)ccc2n1CCCC(F)(F)F` the figure was 207.8 °C. As to `CC(C)(C)c1nc2cc(S(=O)(=O)c3ccc(C(N)=O)cc3)ccc2n1CCCC(F)(F)F` [compound 18], the EC50 in data set [1] is 2000 nM; in data set [2], 3.16 nM. In the case of `CC(C)(C)c1nc2cc(S(=O)(=O)c3ccc(C#N)cc3)ccc2n1CCCC(F)(F)F`, the melting point stood at 165.1 °C. Regarding `COc1ccc(CSc2ccc3c(c2)nc(C(C)(C)C)n3CCCC(F)(F)F)cc1` [compound 1], the figures for the EC50 in data set [1] and in data set [2] were over 10000 nM and 5.01 nM, respectively.

Regarding `CC(C)(C)c1nc2cc(S(=O)(=O)c3ccc(C#N)cc3)ccc2n1CCCCC(F)(F)F` [compound 12], the melting point was found to be 180.1 °C. In addition, in data set [1], the EC50 was 25.1 nM. For the same compound, in data set [2], the EC50 is 1 nM. With `CC(C)(C)c1nc2cc(Sc3cn[nH]c3)ccc2n1CCCC(F)(F)F` [compound 8], the EC50 was over 10000 nM in data set [1] and 0.631 nM in data set [2]. Take `CC(C)(C)c1nc2cc(SCC3CC3)ccc2n1CCCCC(F)(F)F` [compound 14]: the EC50 is 10 nM in data set [1] and 2 nM in data set [2]. Regarding `CC(C)(C)c1nc2cc(S(=O)(=O)c3ccc(C#N)cc3)ccc2n1CCCC(F)(F)F` [compound 6], the EC50 in data set [1] was 79.4 nM; in data set [2] it was 0.398 nM. Turning to `CC(C)(C)c1nc2cc(S(=O)(=O)c3ccncc3)ccc2n1CCCC(F)(F)F` [compound 4], the EC50 in data set [1] is 2510 nM; in data set [2] it was 0.398 nM. For the compound `CC(C)(C)c1nc2cc(S(=O)(=O)C(F)(F)c3ccc(C#N)cc3)ccc2n1CCCCC(F)(F)F` [compound 21], the EC50 is 79.4 nM in data set [1] and 3.16 nM in data set [2].
